Source: article PMC10193983 (Proceedings of the National Academy of Sciences of the …, 2023)

Target: MnMT4
Assay: biolayer interferometry
Type: binding, Mycolicibacterium neoaurum

| Structure (SMILES) | Kd |
| --- | --- |
| Nc1ncnc2c1ncn2[C@@H]1O[C@H](CSCC[C@H](N)C(=O)O)[C@@H](O)[C@H]1O [SAH] | 0.0291 µM |
| C[S+](CC[C@H](N)C(=O)[O-])C[C@H]1O[C@@H](n2cnc3c(N)ncnc32)[C@H](O)[C@@H]1O (some centres unmarked) [SAM] | 18.4 µM |
